From publication PMC12420824, “Discovery of a selective alpha-kinase 1 inhibitor for the rare genetic disease ROSAH syndrome” (Nature Communications, 2025)

Experiments:
Conditions in all cases: read-out: % Enzyme Activity (relative to DMSO control), 10 uM
[1] = biological target: TAOK1 (Homo sapiens, UniProt Q7L7X3); assay: HotSpot kinase assay
[2] = biological target: PDK1/PDHK1 (Homo sapiens, UniProt Q15118); assay: HotSpot kinase assay
[3] = biological target: PLK1 (Homo sapiens, UniProt P53350); assay: HotSpot kinase assay
[4] = biological target: ERN2/IRE2 (Homo sapiens, UniProt Q76MJ5); assay: HotSpot kinase assay
Source text: (§1) Additionally, a 10-dose dilution series of staurosporine and other enzyme-appropriate compounds were included as positive control inhibitors.

[5] = biological target: P38d/MAPK13 (Homo sapiens, UniProt O15264); assay: HotSpot kinase assay
Source text: as §1

[6] = biological target: NEK6 (Homo sapiens, UniProt Q9HC98); assay: HotSpot kinase assay
Source text: as §1

[7] = biological target: MINK/MINK1 (Homo sapiens, UniProt Q8N4C8); assay: HotSpot kinase assay
Source text: as §1

[8] = biological target: MKK7 (Homo sapiens, UniProt O14733); assay: HotSpot kinase assay
[9] = biological target: PKCd (Homo sapiens, UniProt Q05655); assay: HotSpot kinase assay
[10] = biological target: LRRK2 (Homo sapiens, UniProt Q5S007); assay: HotSpot kinase assay
Source text: as §1

[11] = biological target: PKCeta (Homo sapiens, UniProt P24723); assay: HotSpot kinase assay
Source text: as §1

[12] = biological target: MST4 (Homo sapiens, UniProt Q9P289); assay: HotSpot kinase assay
Source text: as §1

[13] = biological target: ALK2/ACVR1 (Homo sapiens, UniProt Q04771); assay: HotSpot kinase assay
[14] = biological target: BRSK2 (Homo sapiens, UniProt Q8IWQ3); assay: HotSpot kinase assay
Source text: as §1

[15] = biological target: NEK9 (Homo sapiens, UniProt Q8TD19); assay: HotSpot kinase assay
[16] = biological target: AMPK(A1/B1/G1) (Homo sapiens, UniProt Q13131); assay: HotSpot kinase assay
Source text: as §1

[17] = biological target: MARK1 (Homo sapiens, UniProt Q9P0L2); assay: HotSpot kinase assay
[18] = biological target: GSK3a (Homo sapiens, UniProt P49840); assay: HotSpot kinase assay
[19] = biological target: CDK16/cyclin Y (PCTAIRE) (Homo sapiens, UniProt Q00536); assay: biochemical
Source text: as §1

[20] = biological target: GRK7 (Homo sapiens, UniProt Q8WTQ7); assay: HotSpot kinase assay
Source text: as §1

[21] = biological target: SLK/STK2 (Homo sapiens, UniProt Q9H2G2); assay: HotSpot kinase assay
Source text: as §1

[22] = biological target: PDK2/PDHK2 (Homo sapiens, UniProt Q15119); assay: HotSpot kinase assay
[23] = biological target: IRR/INSRR (Homo sapiens, UniProt P14616); assay: HotSpot kinase assay
Source text: as §1

[24] = biological target: DMPK2 (Homo sapiens, UniProt Q6DT37); assay: HotSpot kinase assay
Source text: as §1

[25] = biological target: IKKb/IKBKB (Homo sapiens, UniProt O14920); assay: HotSpot kinase assay
[26] = biological target: PAK3 (Homo sapiens, UniProt O75914); assay: HotSpot kinase assay
Source text: as §1

[27] = biological target: MEK2 (Homo sapiens, UniProt P36507); assay: HotSpot kinase assay
[28] = biological target: SNARK/NUAK2 (Homo sapiens, UniProt Q9H093); assay: HotSpot kinase assay
Source text: as §1

[29] = biological target: STK38/NDR1 (Homo sapiens, UniProt Q15208); assay: HotSpot kinase assay
Source text: as §1

[30] = biological target: SNRK (Homo sapiens, UniProt Q9NRH2); assay: HotSpot kinase assay
Source text: as §1

[31] = biological target: GSK3b (Homo sapiens, UniProt P49841); assay: HotSpot kinase assay
Source text: as §1

[32] = biological target: SIK2 (Homo sapiens, UniProt Q9H0K1); assay: HotSpot kinase assay
Source text: as §1

[33] = biological target: FAK/PTK2 (Homo sapiens, UniProt Q05397); assay: HotSpot kinase assay
Source text: as §1

Sequence of TAOK1 (Q7L7X3 whole entry): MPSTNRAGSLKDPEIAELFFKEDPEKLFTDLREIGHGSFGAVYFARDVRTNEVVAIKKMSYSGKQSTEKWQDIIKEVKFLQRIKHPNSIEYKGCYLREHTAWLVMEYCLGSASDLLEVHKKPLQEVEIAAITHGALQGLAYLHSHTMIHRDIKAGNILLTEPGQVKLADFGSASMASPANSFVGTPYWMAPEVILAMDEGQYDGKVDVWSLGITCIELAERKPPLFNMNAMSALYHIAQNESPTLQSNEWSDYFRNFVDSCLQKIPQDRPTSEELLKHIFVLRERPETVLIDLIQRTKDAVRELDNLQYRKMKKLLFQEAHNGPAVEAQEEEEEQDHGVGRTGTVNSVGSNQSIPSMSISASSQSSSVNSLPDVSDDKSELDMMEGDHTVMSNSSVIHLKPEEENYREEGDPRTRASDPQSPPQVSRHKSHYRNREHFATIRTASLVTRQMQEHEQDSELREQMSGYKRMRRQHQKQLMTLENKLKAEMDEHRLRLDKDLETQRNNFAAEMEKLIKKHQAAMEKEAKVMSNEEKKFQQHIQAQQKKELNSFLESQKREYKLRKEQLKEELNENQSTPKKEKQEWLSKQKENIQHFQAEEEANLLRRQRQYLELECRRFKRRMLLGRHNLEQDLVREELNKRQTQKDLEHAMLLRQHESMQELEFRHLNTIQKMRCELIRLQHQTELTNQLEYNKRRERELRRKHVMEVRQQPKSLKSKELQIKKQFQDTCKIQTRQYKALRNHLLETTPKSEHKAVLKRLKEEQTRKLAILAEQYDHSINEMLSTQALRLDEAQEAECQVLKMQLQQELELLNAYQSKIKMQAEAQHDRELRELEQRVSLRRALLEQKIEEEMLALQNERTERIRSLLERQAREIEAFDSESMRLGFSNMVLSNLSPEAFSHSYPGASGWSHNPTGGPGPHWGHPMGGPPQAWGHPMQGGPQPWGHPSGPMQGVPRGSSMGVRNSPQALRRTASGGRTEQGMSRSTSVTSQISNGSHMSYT
Sequence of GRK7 (Q8WTQ7 whole entry): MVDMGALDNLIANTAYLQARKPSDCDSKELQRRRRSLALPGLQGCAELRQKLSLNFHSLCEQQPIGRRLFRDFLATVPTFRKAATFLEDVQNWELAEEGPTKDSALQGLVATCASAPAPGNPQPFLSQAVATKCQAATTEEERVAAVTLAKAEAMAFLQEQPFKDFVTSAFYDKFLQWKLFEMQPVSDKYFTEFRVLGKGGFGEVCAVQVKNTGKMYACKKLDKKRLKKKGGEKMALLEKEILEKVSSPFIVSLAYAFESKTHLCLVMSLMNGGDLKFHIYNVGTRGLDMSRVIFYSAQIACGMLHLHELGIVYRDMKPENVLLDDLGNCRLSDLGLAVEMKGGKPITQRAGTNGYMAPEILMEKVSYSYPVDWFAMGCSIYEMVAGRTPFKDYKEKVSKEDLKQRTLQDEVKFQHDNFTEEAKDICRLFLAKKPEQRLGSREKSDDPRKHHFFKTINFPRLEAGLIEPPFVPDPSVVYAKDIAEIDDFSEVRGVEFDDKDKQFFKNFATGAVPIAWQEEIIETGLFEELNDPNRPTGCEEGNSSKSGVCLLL
Sequence of AMPK(A1/B1/G1) (Q13131 whole entry): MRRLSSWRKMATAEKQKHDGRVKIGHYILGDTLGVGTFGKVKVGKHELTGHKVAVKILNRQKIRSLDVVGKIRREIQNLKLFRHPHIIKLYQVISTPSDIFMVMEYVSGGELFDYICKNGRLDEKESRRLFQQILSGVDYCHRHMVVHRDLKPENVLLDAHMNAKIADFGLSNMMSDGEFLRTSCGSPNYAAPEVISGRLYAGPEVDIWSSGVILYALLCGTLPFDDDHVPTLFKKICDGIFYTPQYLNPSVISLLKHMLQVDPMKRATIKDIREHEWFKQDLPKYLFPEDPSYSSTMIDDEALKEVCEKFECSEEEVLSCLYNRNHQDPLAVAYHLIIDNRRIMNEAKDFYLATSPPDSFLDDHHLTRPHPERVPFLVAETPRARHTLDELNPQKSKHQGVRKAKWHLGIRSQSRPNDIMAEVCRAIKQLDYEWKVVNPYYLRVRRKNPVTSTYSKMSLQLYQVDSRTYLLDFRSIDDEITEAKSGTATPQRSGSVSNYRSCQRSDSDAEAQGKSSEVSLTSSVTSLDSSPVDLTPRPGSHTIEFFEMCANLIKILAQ
Sequence of AMPK(A1/B1/G1) (Q9Y478 whole entry partner): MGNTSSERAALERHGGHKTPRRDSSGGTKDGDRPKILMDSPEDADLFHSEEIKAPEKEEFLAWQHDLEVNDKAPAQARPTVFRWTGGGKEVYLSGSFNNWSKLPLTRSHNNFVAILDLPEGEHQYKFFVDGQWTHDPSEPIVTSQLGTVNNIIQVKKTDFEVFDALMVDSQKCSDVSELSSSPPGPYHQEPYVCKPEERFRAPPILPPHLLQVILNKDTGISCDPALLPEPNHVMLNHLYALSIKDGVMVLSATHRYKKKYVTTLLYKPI
Sequence of AMPK(A1/B1/G1) (P54619 whole entry partner): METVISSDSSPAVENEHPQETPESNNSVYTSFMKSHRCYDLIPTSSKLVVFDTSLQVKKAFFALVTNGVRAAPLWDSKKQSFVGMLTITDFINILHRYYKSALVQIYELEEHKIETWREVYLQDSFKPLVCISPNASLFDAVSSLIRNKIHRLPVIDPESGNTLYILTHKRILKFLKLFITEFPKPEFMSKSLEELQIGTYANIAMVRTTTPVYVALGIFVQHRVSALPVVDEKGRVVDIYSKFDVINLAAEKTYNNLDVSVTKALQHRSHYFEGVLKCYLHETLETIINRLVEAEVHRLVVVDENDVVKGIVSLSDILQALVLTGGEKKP
Sequence of SNRK (Q9NRH2 whole entry): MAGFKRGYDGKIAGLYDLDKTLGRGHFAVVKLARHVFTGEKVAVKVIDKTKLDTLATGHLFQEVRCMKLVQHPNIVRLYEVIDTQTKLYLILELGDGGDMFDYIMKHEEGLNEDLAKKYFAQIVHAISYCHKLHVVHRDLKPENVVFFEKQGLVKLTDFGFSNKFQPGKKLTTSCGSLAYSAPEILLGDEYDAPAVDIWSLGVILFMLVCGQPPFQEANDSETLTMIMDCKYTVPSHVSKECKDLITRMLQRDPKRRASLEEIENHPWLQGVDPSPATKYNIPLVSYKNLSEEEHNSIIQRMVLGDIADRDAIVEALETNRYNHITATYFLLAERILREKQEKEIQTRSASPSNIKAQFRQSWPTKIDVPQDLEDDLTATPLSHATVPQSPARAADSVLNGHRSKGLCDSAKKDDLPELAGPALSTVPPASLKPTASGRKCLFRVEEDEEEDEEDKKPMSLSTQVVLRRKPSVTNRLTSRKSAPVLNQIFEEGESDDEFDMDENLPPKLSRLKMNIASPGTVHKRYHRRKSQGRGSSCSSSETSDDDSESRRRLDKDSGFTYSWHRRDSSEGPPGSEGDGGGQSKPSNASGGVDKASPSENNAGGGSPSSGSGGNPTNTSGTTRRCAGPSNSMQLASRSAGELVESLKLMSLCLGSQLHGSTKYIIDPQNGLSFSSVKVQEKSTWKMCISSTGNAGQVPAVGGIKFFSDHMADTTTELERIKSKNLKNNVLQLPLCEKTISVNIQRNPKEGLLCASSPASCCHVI
Sequence of MINK/MINK1 (Q8N4C8 whole entry): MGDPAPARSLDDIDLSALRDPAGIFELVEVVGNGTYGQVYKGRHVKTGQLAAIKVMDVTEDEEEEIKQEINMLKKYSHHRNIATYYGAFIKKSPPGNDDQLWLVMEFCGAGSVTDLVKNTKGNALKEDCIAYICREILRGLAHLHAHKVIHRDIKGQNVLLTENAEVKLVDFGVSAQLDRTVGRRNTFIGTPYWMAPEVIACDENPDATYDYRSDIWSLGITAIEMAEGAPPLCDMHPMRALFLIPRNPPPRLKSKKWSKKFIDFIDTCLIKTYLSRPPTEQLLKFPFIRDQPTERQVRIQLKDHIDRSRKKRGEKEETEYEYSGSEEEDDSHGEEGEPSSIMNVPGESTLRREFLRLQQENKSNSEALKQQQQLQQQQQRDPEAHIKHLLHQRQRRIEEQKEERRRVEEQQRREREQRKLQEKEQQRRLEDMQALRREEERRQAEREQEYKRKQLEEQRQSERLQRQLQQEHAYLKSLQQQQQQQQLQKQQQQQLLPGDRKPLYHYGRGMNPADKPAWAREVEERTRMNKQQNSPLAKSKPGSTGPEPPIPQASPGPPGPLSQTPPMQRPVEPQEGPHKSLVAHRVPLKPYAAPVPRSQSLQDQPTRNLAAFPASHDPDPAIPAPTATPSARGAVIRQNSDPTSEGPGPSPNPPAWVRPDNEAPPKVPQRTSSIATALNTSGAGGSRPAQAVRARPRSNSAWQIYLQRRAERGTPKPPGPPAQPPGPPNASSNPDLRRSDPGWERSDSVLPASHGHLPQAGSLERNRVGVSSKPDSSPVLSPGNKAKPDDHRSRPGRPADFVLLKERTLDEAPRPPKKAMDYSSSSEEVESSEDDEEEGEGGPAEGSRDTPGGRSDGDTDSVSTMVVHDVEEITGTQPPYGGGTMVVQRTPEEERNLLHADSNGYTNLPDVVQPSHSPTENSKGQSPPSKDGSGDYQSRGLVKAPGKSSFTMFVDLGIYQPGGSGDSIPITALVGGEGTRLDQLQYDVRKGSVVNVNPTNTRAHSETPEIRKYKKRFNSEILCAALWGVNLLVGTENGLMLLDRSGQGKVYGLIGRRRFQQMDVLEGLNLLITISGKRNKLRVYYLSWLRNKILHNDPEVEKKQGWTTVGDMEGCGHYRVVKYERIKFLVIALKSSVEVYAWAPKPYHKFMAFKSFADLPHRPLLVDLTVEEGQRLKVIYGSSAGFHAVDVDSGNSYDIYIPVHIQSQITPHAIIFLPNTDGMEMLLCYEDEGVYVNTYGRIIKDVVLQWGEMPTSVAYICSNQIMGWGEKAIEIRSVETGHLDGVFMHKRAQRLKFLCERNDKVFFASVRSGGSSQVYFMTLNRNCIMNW

Work on C#C[C@@](C)(c1ccc(Cl)cc1)c1csc(NC(=O)c2c(F)cc(N3CCNCC3)cc2F)n1 (stereo in doubt) [DF-003] yielded a remaining activity at 10 µM [1] of 16.8%, a remaining activity at 10 µM [2] of 101% and a remaining activity at 10 µM [3] of 114%. The remaining activity at 10 µM [4] was 62.1%, the remaining activity at 10 µM [5] was 104% and the remaining activity at 10 µM [6] was 88.5%. For the same compound, the remaining activity at 10 µM [7] was 98.7%, the remaining activity at 10 µM [8] was 103% and the remaining activity at 10 µM [9] was 69.8%. It also gave a remaining activity at 10 µM [10] of 99.2%, a remaining activity at 10 µM [11] of 75.3% and a remaining activity at 10 µM [12] of 69.3%. The remaining activity at 10 µM [13] was 92.7%, the remaining activity at 10 µM [14] was 96% and the remaining activity at 10 µM [15] was 100%. The remaining activity at 10 µM [16] was 119%, the remaining activity at 10 µM [17] was 104% and the remaining activity at 10 µM [18] was 195%. It also gave a remaining activity at 10 µM [19] of 91.8%, a remaining activity at 10 µM [20] of 114% and a remaining activity at 10 µM [21] of 89%. It also gave a remaining activity at 10 µM [22] of 85.3%, a remaining activity at 10 µM [23] of 66.3% and a remaining activity at 10 µM [24] of 74%. For the same compound, the remaining activity at 10 µM [25] was 152%, the remaining activity at 10 µM [26] was 117% and the remaining activity at 10 µM [27] was 89.8%. The remaining activity at 10 µM [28] was 124%, the remaining activity at 10 µM [29] was 90% and the remaining activity at 10 µM [30] was 80.5%. The remaining activity at 10 µM [31] was 93.3%, the remaining activity at 10 µM [32] was 88.5% and the remaining activity at 10 µM [33] was 128%.
